# Assay results taken from paper PMC3001897, “High-Throughput Chemical Screen Identifies a Novel Potent Modulator of Cellular Circadian Rhythms and Reveals CKIα as a Clock Regulatory Kinase” (PLoS Biology, 2010).
# Assays:
# [1] = system: cultured cells; parameters: method as in PMID 16983144, PMID 15767683, PMID 17876059; settings: ref [14],[16]–[17]; cited from earlier work
# [2] = system: Bmal1-dLuc U2OS cells; assay: U2OS cell-based circadian assay (Bmal1-dLuc luminescence rhythms); parameters: species or system human; settings: Bmal1-dLuc U2OS cells; for Period effect compared with longdaysin: Figure S10; for Effect on circadian period: various concentrations
# Procedure: (§1) The compound screen was done with the high-throughput circadian assay system as described previously. In brief, Bmal1-dLuc U2OS cells were suspended in the culture medium (DMEM supplemented with 10% fetal bovine serum, 0.29 mg/ml L-glutamine, 100 units/ml penicillin, and 100 µg/ml streptomycin) and plated onto 384-well white solid-bottom plates at 20 µl (2,000 cells) per well. After 2 d, 50 µl of the explant medium (DMEM supplemented with 2% B27, 10 mM HEPES, 0.38 mg/ml sodium bicarbonate, 0.29 mg/ml L-glutamine, 100 units/ml penicillin, 100 µg/ml streptomycin, 0.1 mg/ml gentamicin, and 1 mM luciferin, pH 7.2) was dispensed to each well, followed by the application of 500 nl of compounds (dissolved in DMSO; final 0.7% DMSO). The plate was covered with an optically clear film and set to luminescence monitoring system equipped with a CCD imager (ViewLux, Perkin Elmer). The luminescence was recorded every 2 h for 3–4 days. In follow-up studies, the luminescence was recorded every 100 min by using a microplate reader (Infinite M200, Tecan). The period parameter was obtained from the luminescence rhythm by curve fitting program CellulaRhythm or MultiCycle (Actimetrics), both of which gave similar results.
# [3] = system: Bmal1-dLuc U2OS cells; assay: Cytotoxicity in the U2OS circadian assay; format: cell-based, human
# Procedure: as §1
# [4] = biological target: CKIδ (Homo sapiens, UniProt P48730); assay: In vitro kinase assay, CKIδ; format: biochemical; parameters: purchased Millipore 14-520
# CKIδ, sequence (P48730 whole entry, species assumed): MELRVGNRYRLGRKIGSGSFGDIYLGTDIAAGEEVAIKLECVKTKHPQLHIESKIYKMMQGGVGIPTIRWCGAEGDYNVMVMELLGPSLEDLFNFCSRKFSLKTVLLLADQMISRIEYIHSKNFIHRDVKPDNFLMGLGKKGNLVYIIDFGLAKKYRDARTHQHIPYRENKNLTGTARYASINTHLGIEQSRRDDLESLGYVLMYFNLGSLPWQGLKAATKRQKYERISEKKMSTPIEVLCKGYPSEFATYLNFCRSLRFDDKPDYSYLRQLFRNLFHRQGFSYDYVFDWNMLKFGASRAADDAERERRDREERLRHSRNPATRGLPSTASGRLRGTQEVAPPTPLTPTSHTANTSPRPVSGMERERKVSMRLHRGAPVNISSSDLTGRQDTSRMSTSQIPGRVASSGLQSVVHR
# Procedure: (§2) The CKIδ, CKIα, CDK7, and ERK2 kinase assays were performed on 384-well plates (10 µl volume). The reaction mixture was as follows: for CKIδ, 2 ng/µl CKIδ (Millipore, 14-520), 50 µM peptide substrate RKKKAEpSVASLTSQCSYSS corresponding to human PER2 Lys659-Ser674 [47], and CKI buffer (40 mM Tris, 10 mM MgCl2, 0.5 mM DTT, 0.1 mg/ml BSA, pH 7.5); for CKIα, 1 ng/µl CKIα (Invitrogen, PV3850), 50 µM CKI peptide substrate (Anaspec, 60547-1), and CKI buffer; for CDK7, 5 ng/µl CDK7 (Millipore, 14-476), 100 µM Cdk7/9 peptide substrate (Millipore, 12-526), and CKI buffer; for ERK2, 1.5 ng/µl ERK2 (Millipore, 14-550), 0.8 µg/µl MBP (Millipore, 13-104), and ERK buffer (50 mM Tris, 10 mM MgCl2, 0.5 mM DTT, 1 mM EGTA, pH 7.5). Five hundred nl of compound was added to the mixture (final 5% DMSO), and the reaction was started by adding ATP (final 5 µM). After incubation at 30°C for 3h, 10 µl of Kinase-Glo Luminescent Kinase Assay reagent (Promega) was added, and the luminescence was detected to determine remaining ATP amount. […] IC50 value was obtained by using Prism software (GraphPad Software).
# [5] = biological target: T1, ERK2 (Homo sapiens, UniProt P28482); assay: In vitro kinase assay, ERK2; format: biochemical
# T1 construct: purchased Millipore 14-550
# T1 sequence (P28482 whole entry, species assumed): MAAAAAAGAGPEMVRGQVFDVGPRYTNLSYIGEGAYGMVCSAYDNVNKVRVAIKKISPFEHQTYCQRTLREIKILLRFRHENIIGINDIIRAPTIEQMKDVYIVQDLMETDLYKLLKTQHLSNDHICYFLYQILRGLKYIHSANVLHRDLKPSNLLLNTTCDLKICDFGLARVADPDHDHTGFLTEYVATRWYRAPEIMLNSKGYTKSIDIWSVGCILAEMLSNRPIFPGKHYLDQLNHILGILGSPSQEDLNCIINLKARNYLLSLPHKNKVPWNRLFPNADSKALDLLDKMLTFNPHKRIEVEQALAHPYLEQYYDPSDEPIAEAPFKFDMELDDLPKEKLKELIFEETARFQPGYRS
# Procedure: as §2
# [6] = biological target: CKIα (Homo sapiens, UniProt P48729); assay: In vitro kinase assay, CKIα; format: biochemical; parameters: purchased Invitrogen PV3850
# CKIα, sequence (P48729 whole entry): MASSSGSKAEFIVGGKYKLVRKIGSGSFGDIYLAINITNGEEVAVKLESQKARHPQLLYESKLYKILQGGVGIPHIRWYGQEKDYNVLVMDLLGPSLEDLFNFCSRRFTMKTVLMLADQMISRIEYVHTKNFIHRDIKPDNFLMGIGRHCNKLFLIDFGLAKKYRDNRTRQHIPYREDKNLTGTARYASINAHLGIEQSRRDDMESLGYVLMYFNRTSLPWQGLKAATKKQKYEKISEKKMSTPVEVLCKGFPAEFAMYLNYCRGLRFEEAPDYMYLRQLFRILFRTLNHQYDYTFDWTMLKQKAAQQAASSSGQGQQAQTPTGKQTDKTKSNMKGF
# Procedure: as §2
# [7] = biological target: T2, CDK7 (Homo sapiens, UniProt P50613); assay: In vitro kinase assay, CDK7; format: biochemical
# T2 construct: purchased Millipore 14-476
# T2 sequence (P50613 whole entry): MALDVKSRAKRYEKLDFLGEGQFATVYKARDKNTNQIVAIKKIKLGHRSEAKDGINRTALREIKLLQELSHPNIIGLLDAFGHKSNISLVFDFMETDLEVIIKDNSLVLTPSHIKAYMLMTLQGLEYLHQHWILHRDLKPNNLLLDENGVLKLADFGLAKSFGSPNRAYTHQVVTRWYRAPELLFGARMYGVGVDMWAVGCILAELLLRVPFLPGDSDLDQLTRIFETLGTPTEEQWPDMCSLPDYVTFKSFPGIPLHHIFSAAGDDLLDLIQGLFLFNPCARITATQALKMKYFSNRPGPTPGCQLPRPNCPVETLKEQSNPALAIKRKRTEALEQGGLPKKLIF
# T2 sequence (P51946 whole entry partner): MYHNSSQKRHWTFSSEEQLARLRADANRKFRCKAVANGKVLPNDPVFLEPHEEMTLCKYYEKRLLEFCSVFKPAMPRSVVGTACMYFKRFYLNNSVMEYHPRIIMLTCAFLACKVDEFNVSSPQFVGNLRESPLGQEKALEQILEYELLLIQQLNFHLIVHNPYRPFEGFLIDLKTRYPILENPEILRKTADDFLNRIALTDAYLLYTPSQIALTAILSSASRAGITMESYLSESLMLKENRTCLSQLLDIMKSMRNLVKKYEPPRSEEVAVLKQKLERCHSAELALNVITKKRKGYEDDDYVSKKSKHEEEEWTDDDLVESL
# T2 sequence (P51948 whole entry partner): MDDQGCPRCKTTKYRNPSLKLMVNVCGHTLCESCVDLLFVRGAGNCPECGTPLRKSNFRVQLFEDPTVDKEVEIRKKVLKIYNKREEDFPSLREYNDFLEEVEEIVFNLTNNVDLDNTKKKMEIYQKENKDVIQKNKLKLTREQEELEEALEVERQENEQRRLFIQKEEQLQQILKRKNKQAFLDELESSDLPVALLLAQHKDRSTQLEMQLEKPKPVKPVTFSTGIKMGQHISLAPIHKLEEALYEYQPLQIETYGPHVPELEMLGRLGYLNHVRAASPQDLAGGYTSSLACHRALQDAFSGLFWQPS
# Procedure: as §2
# [8] = system: SCN explants; parameters: method as in PMID 18448638; settings: ref [59]; cited from earlier work
smiles,measurement,setting,value
"NC(=O)c1ccc(-c2nc(-c3ccc4c(c3)OCCO4)c(-c3ccccn3)[nH]2)cc1 [Compound D4476, reference compound]",Effect on period in cultured cells,[1],period lengthening
same,Period effect compared with longdaysin,[2],smaller period effects
same,Concentration showing cytotoxicity,[3],71 µM
"CC(C)n1cnc2c(NCc3ccccc3)ncnc21 [Compound 1, N-benzyl-9-isopropyl-9H-purin-6-amine]",IC50,"[4]; ATP 5 µM, from Figure 2E",21 µM
same,Potency against CKIδ relative to longdaysin (times less),[4]; in vitro kinase assay,~3 times
same,Effect on circadian period,[2],strongly lengthened the period in a dose-dependent manner
same,"Concentration for period change, 5 h",[2]; from Figure 1B,4.4 µM
same,"Concentration for period change, 10 h",[2]; from Figure 1B,17 µM
same,"Concentration for period change, 15 h",[2]; from Figure 1B,38 µM
same,IC50,"[5]; ATP 5 µM, from Figure 2E",160 µM
same,Potency against ERK2 relative to longdaysin (times less),[5]; in vitro kinase assay,~3 times
same,IC50,"[6]; ATP 5 µM, from Figure 2E",23 µM
same,Potency against CKIα relative to longdaysin (times less),[6]; in vitro kinase assay,~3 times
same,IC50,"[7]; ATP 5 µM, from Figure 2E",29 µM
same,Inhibition of CDK7 compared with longdaysin,[7]; in vitro kinase assay,inhibited CDK7 similarly to longdaysin
N#CC(=C(/N)Sc1ccccc1N)/C(C#N)=C(/N)Sc1ccccc1N [Compound U0126],Effect on circadian rhythms in SCN explants,[8],Attenuation of the circadian rhythms
"CC(=O)NCCCCCCNc1nc(NCc2cccc(C(F)(F)F)c2)c2ncn(C(C)C)c2n1 [Compound 2, N-(6-(9-isopropyl-6-(3-(trifluoromethyl)benzylamino)-9H-purin-2-ylamino)hexyl)acetamide]",Effect on circadian period,[2],retained the period lengthening effect
NCCNS(=O)(=O)c1ccc(Cl)c2ccncc12 [CKI-7],Effect on period in cultured cells,[1],period lengthening
"COc1cc(OC)c(C=C2C(O)=Nc3ccccc32)c(OC)c1 [IC261, reference compound]",Effect on period in cultured cells,[1],period lengthening
same,Period effect compared with longdaysin,[2],smaller period effects
